Assay results as given in US11773078B2, “Furin inhibitors” (Glaxosmithkline Intellectual Property Development Limited, priority 2018, dated 2023).
pKi: −log10 of the molar value. Counter-ions that a name gives are not always drawn.

Assays:
[1] = target: T1, Furin (108-574-Tev-Flag-His) enzyme (Homo sapiens, UniProt P09958); test: Furin enzyme assay; format: biochemical
T1 construct: Furin (108-574-Tev-Flag-His) enzyme was expressed and purified from CHO cells; TEV cleavage site (C); FLAG (C); His (C); made in house; host or cells: CHO cells
T1 sequence (P09958 108-574): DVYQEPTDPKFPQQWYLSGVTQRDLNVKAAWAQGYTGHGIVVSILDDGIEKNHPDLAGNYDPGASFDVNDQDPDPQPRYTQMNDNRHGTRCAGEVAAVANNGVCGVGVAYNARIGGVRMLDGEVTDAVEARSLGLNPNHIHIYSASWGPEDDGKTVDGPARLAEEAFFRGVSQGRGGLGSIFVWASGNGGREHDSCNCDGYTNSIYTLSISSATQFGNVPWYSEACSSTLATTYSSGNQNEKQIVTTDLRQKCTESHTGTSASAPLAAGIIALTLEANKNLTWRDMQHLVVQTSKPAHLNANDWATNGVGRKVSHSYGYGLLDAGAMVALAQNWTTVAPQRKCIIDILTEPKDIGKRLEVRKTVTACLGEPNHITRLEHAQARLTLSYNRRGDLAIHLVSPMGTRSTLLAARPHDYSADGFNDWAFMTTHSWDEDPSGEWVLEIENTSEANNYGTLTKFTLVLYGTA
Summary of the method: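 Compounds ran as 11-point threefold dilutions (0.00017–10 μM final) against 40 pM furin, purified from CHO cells, for 2 h at room temperature. Buffer: 100 mM HEPES pH7.5 with 1 mM CaCl2 and 0.005% Triton X-100. Envision readout. Four-parameter curve gives pXC50.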

[2] = target: T2, furin (endogenous protease) in U20S cells (Homo sapiens, UniProt P09958); test: Furin cell-based assay (image-based, Golgi-targeted GFP with BMP10 furin/PCSK cleavage site); details: 24-hour incubation, read-out: furin golgi cell pXC50 (converted);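 also: Read-out is mean GFP fluorescence of Golgi puncta per cell by high-content imaging, retained when furin inhibited, over an eleven-point 0.00017–10 µM series, four-parameter fit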
T2 construct: the endogenous protease cleaves GFP; endogenous in cells; host or cells: U2OS cells transduced with a BacMam reporter
T2 sequence (P09958 108-794): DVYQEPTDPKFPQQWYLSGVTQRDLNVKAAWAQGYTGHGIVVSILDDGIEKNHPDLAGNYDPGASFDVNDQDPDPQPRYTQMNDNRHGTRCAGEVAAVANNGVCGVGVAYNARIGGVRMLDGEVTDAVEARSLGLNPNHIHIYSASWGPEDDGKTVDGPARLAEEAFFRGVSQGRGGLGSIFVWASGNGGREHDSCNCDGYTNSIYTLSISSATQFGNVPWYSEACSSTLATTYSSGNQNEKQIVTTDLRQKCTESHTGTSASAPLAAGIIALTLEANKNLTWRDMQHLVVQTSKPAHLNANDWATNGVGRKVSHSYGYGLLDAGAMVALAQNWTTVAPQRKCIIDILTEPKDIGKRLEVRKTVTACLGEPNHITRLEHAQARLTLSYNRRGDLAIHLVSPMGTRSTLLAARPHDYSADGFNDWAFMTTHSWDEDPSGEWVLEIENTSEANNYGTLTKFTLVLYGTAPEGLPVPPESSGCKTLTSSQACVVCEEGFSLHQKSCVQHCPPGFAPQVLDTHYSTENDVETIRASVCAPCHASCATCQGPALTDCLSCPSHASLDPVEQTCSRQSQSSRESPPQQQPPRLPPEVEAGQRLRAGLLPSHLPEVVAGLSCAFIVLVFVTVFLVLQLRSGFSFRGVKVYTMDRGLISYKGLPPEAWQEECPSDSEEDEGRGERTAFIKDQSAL

[3] = system: hydroxyproline (a specific marker for collagen) in mouse lung; test: Bleomycin induced lung fibrosis model: hydroxyproline assay; format: in vivo; details: 10 mg/kg, Intra-peritoneal, Twice daily; relative to levels induced by Bleomycin in vehicle treated animals; *p < 0.05
Procedure: (§1) Preclinical pulmonary fibrosis can be induced by single instillation of Bleomycin to the mouse lung. A 15-day Bleomycin protocol was developed to evaluate compounds of the invention in vivo for their ability to inhibit TGFβ secretion and collagen deposition in the mouse lung. On the day before Bleomycin instillation, compounds were administrated to mice based on the appropriate route and frequency. On the study initiation day, under Ketamine (80 mg/kg) and Xylazine (10 mg/kg) anesthesia, all the animals were cannulated oro-tracheally and 50 μL of normal saline (Sham control) or 0.03 U Bleomycin in 50 μL saline (all groups except sham control group) was delivered into the trachea. Compounds were dosed daily until the end of study on Day 15. On termination day, animals were euthanized using CO2 inhalation. The right lung was collected, washed in normal saline, weighed, flash frozen in liquid nitrogen and stored at −80° C. for hydroxyproline (a specific marker for collagen) and TGFβ assays.
(§2) Flash frozen whole right lung tissues were homogenized in 500 μL of RIPA buffer containing PMSF and protease inhibitor cocktail using zirconium oxide bead based homogenizer (Bullet blender Gold, NextAdvance, Germany). Briefly, tissues were spun in the homogenizer at 4° C. for three cycles of 10 minutes each at 1000 g. A complete uniform tissue mixture was obtained using this procedure. The homogenate volume was made up to 1.5 mL by adding 1 mL of RIPA buffer containing PMSF and protease inhibitor cocktail to 500 μL of homogenate. The homogenate was stored as aliquots of 100-500 μL each at −80° C.
Acid hydrolysis: 500 μL of the homogenized lung parenchyma was transferred to glass vials, and an equal volume of 12N HCl was added (final concentration of HCl: 6N). The vials were purged with nitrogen gas, sealed and incubated overnight (16 h) under anoxic conditions at 110° C.
Post incubation procedures: 35 μL of the sample from each tube or standard (prepared by serial dilution of hydroxyproline stock solution) was added onto a 96 well plate and the assay was performed as per the kit protocol (Quickzyme Biosciences: Cat #: QZBHYPR05). After the final color development, absorbance was measured by colorimetric analysis at 570 nm (using Thermoscan spectrum (Plate Reader) and results were recorded. Standard curve (linear graph) was generated by using hydroxyproline standards provided in the Quickzyme kit.

TGFβ in mouse lung = test: Bleomycin induced lung fibrosis model: TGFβ assay; format: in vivo; details: 10 mg/kg, Intra-peritoneal, Twice daily; relative to levels induced by Bleomycin in vehicle treated animals; *p < 0.05
Procedure: as §1, §2
Lung tissue homogenates (500 μL) were spun at 13,000 rpm for 20 minutes at 4° C. and supernatants were collected for TGFβ estimation. The assay was performed according to the manufacturer's manual (R&D systems: Cat #SMB100B). Briefly, the lung homogenates were activated by acid activation followed by neutralization to convert latent TGFβ to active TGFβ and the total TGFβ levels in supernatants were measured. Total protein levels in the lung supernatant were also determined.

[4] = system: epithelial sodium channel (ENaC); test: Transepithelial Electrical Resistance (TEER) assay, primary CF delF508 or non-CF HBE cells (FIG. 6-9); format: cell-based, human
Procedure: (§3) Primary cultures of CF delF508 or non-CF HBE cells are seeded onto permeable filter supports and grown for 12-14 days for a significant RTE to be measured for TEER assays.
(§4) When the ENaC is active under basal conditions (at least in part due to protease cleavage inside the cell or at the apical membrane), there is a finite RTE that is affected by the Na+ current flowing through ENaC heterotrimers (αβγ or δβγ).

[5] = system: epithelial sodium channel (ENaC); test: TEER assay, chronic or acute treatment, Non-CF Polarized Human Lobar Bronchial Epithelial Cells; format: cell-based; set-up: RTE Before Amil / RTE After Amil: unit not given here; details: for Delta RTE / RTE After Amil / RTE Before Amil: chronic treatment (overnight)
Procedure: as §3, §4

[6] = system: epithelial sodium channel (ENaC); test: Transepithelial fluid transport assay, CF delF508 HBE cells; format: cell-based, human
Procedure: Primary cultures of CF delF508 or non-CF HBE cells are seeded onto permeable filter supports and grown for 7 days for a significant RTE to be measured. Then, apical media is removed to initiate air-fluid interface (AFI) culture. When the cell monolayers are tight to fluid leak from basolateral to apical side of the cell monolayer, they are ready for fluid transport (fluid absorption) measurements.
Two methods are being used to challenge cell monolayers in AFI culture where there is no media in the apical side:
(1) A chronic overnight treatment was performed by adding the protease inhibitors (ENaC inhibitors) into the basolateral media. Then, […] of cell culture media is added to the apical side of each monolayer and fluid absorption measured (by the loss of volume in mls).
(2) An acute treatment was performed when the protease inhibitors (ENaC inhibitors) are added in the apical media in that […] volume (or media only or DMSO equivalents as controls).
In each case, fluid absorption is occurring against a 5× hydrostatic pressure gradient (i.e., there are 500 ml on the basolateral side and […] on the apical side).
When the ENaC is active under basal conditions (at least in part due to protease cleavage inside the cell or at the apical membrane), the absorptive Na+ current flowing through ENaC heterotrimers (αβγ or δβγ) creates an osmotic driving force for fluid absorption.

furin and PCSK 5/6 = details: serpin protease inhibitor; specificity for furin and PCSK 5/6; from Couture et al. 2015; cited from earlier work

CC(=O)NCC1CCN(Cc2cc(Oc3ccc(N4CCN(CCC(=O)O)CC4)nc3)nc(-c3cc(Cl)cc(Cl)c3)c2)CC1 [Example 11, 3-(4-(5-((4-((4-(Acetamidomethyl)piperidin-1-yl)methyl)-6-(3,5-dichlorophenyl)pyridin-2-yl)oxy)pyridin-2-yl)piperazin-1-yl)propanoic acid, 4 hydrochloride]
furin enzyme pIC50 [1]: 9.6 | EC50 [2]: 25.1 nM | % inhibition of hydroxyproline in lung [3]: 67* % | % inhibition of total TGFβ in lung (TGFβ in mouse lung): 69* % | amiloride-induced increase in RTE ([4]; compared to 'Media only' and 'DMSO (LTA)' controls, FIG. 6, *p<0.05): concentration-dependent reduction in amiloride-induced increase in RTE | effectiveness on RTE compared to industry standards ([4]; compared to Camostat at the same concentration and Aprotinin at ˜10 μM, FIG. 7, overlap in CRCs only at 3 μM): more effective | acute effect on RTE ([5]; acute treatment, up to 3 μM): equivalent acute effect to Aprotinin and a stronger effect than Camostat | inhibition of amiloride-sensitive RTE delta (remaining ENaC activity) ([5]; acute treatment, up to 3 μM): inhibited amiloride-sensitive RTE delta modestly | effect on the amiloride-sensitive RTE delta ([5]; chronic overnight treatment, 3 μM, P<0.05): equivalent inhibitory effect | Delta RTE ([5]; 0.1 μM): +181 ± 16 | RTE After Amil ([5]; 0.1 μM): 697 ± 57 | RTE Before Amil ([5]; 0.1 μM): 517 ± 42 | Delta RTE ([5]; 0.3 μM): +122 ± 6 | RTE After Amil ([5]; 0.3 μM): 548 ± 13 | RTE Before Amil ([5]; 0.3 μM): 426 ± 10 | Delta RTE ([5]; 1 μM): +133 ± 14 | RTE After Amil ([5]; 1 μM): 605 ± 49 | RTE Before Amil ([5]; 1 μM): 472 ± 38 | Delta RTE ([5]; 3 μM): +63 ± 7 | RTE After Amil ([5]; 3 μM): 390 ± 18 | RTE Before Amil ([5]; 3 μM): 326 ± 16 | attenuation of rate of fluid lost ([6]; 1 and 3 μM): 50% | attenuation of total fluid volume lost ([6]; 1 and 3 μM): 50% | absorptive fluid transport ([6]; compared to 'DMSO Equivalent' controls, FIG. 10 and FIG. 11): concentration-dependent attenuation of absorptive fluid transport

α1-PDX: "an engineered variant of naturally occurring α-1-antitrypsin serum protease inhibitor"; "a serpin superfamily wide protease inhibitor with high specificity for furin and PCSK 5/6"
pKi (furin and PCSK 5/6): ≤ 9.22
